Molecules are shown by their SMILES.

For the assay, the target named is T1, Zcchc11 enzyme (Homo sapiens, UniProt Q5TAX3).
T1 construct: made in house; host or cells: HEK293 cells (Zcchc11); E. coli Rosetta II (LIN28A)
T1 sequence (Q5TAX3 212-1420): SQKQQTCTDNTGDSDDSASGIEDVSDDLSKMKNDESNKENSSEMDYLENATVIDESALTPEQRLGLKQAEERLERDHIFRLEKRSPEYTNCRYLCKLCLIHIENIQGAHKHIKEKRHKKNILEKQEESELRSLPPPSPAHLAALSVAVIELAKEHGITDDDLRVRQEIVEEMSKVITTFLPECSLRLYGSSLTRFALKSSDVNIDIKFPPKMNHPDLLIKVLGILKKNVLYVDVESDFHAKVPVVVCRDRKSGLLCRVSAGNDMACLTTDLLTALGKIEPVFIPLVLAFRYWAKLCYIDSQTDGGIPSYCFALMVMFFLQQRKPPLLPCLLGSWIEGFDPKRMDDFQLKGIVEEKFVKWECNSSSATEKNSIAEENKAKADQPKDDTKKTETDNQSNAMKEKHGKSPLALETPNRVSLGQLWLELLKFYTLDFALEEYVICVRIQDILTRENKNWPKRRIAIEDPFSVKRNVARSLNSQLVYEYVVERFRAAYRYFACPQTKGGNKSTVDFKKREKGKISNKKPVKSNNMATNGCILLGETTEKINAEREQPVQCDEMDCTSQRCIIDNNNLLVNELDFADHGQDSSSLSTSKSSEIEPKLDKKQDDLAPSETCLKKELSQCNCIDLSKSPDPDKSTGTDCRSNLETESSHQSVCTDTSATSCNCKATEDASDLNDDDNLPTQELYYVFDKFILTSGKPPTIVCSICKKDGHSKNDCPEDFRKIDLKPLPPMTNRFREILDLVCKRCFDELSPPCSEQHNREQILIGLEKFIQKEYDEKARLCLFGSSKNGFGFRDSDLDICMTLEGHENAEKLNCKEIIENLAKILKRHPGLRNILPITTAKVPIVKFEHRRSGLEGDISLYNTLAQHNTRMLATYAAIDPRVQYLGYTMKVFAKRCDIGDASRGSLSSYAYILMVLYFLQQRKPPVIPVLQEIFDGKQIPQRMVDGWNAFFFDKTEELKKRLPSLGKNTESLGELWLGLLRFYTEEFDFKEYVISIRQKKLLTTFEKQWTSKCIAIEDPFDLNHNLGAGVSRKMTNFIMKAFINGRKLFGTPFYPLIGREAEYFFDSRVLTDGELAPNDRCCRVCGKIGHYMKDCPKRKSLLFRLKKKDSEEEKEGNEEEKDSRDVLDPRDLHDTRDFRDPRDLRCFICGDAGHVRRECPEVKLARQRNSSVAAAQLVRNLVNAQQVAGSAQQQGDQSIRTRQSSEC
Description: TUTase assay (Zcchc11 assay, Lin28a-dependent polyuridylation of pre-let-7). It is filed as biochemical. The settings on record: Lin28a-dependent Zcchc11 (Z11) TUTase activity; read-out: Potency Lin28a-dep Z11 IC50. In short, it runs like this: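 Potency is measured as inhibition of LIN28A-driven U-tail addition to 2 nM pre-let-7 by 0.2 nM HEK293-derived Zcchc11 fragment with 5 uM UTP at room temperature. Tail growth appears as fluorescein quenching by an annealing rhodamine-A20 probe.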
Usually IC50 stands for the concentration that inhibits the measured activity by half. Take `Cc1cccnc1OC[C@H]1CCCN1c1cc2c(cc1F)c(=O)c(C(=O)O)cn2-c1ccc(O)cc1` [Compound 119, (R)-6-fluoro-1-(4-hydroxy-phenyl)-7-(2-(((3-methylpyridin-2-yl)oxy)methyl)pyrrolidin-1-yl)-4-oxo-1,4-dihydro-quinoline-3-carboxylic acid]: the IC50 was at most 1000 nM.

For the compound `Cc1cccnc1OC[C@H]1CCCN1c1cc2c(cc1F)c(=O)c(C(=O)O)cn2-c1ccc(O)c(F)c1` [Compound 120, (R)-6-fluoro-1-(3-fluoro-4-hydroxy-phenyl)-7-(2-(((3-methylpyridin-2-yl)oxy)methyl)pyrrolidin-1-yl)-4-oxo-1,4-dihydro-quinoline-3-carboxylic acid], the IC50 was at most 1000 nM.

For `Cc1cccnc1OC[C@H]1CCCN1c1cc2c(cc1F)c(=O)c(C(=O)O)cn2-c1ccc(F)c(O)c1` [Compound 121, (R)-6-fluoro-1-(4-fluoro-3-hydroxy-phenyl)-7-(2-(((3-methylpyridin-2-yl)oxy)methyl)pyrrolidin-1-yl)-4-oxo-1,4-dihydro-quinoline-3-carboxylic acid], the IC50 is at most 1000 nM.

Consider `Cc1cccnc1OC[C@H]1CCCN1c1cc2c(cc1F)c(=O)c(C(=O)O)cn2-c1ccc(O)c(Cl)c1` [Compound 122, (R)-1-(3-chloro-4-hydroxy-phenyl)-6-fluoro-7-(2-(((3-methylpyridin-2-yl)oxy)methyl)pyrrolidin-1-yl)-4-oxo-1,4-dihydro-quinoline-3-carboxylic acid], for which the 50% inhibitory concentration (IC50) is at most 1000 nM.

For the compound `Cc1cccnc1OC[C@H]1CCCN1c1cc2c(cc1F)c(=O)c(C(=O)O)cn2-c1ccc(CO)cc1F` [Compound 123, (R)-6-fluoro-1-(2-fluoro-4-(hydroxy-methyl)phenyl)-7-(2-(((3-methylpyridin-2-yl)oxy)methyl)pyrrolidin-1-yl)-4-oxo-1,4-dihydro-quinoline-3-carboxylic acid], the IC50 was at most 1000 nM.

Turning to `COCCOc1ccc(-n2cc(C(=O)O)c(=O)c3cc(F)c(N4CCC[C@@H]4COc4ncccc4C)cc32)cc1` [Compound 124, (R)-6-fluoro-1-(4-(2-methoxyethoxy)phenyl)-7-(2-(((3-methylpyridin-2-yl)oxy)methyl)pyrrolidin-1-yl)-4-oxo-1,4-dihydro-quinoline-3-carboxylic acid], the half-inhibitory concentration (IC50) was at most 1000 nM.

With `COCCOc1cnc(-n2cc(C(=O)O)c(=O)c3cc(F)c(N4CCC[C@@H]4COc4ncccc4C)cc32)cn1` [Compound 125, (R)-6-fluoro-1-(5-(2-methoxyethoxy)pyrazin-2-yl)-7-(2-(((3-methylpyridin-2-yl)oxy)methyl)pyrrolidin-1-yl)-4-oxo-1,4-dihydro-quinoline-3-carboxylic acid], the IC50 was at most 1000 nM.

With `O=C(O)c1cn(-c2ccc(Cl)c(O)c2)c2cc(N3CCC[C@@H]3COc3ncccc3Cl)c(Cl)cc2c1=O` [Compound 126, (R)-6-chloro-1-(4-chloro-3-hydroxy-phenyl)-7-(2-(((3-chloropyridin-2-yl)oxy)methyl)pyrrolidin-1-yl)-4-oxo-1,4-dihydro-quinoline-3-carboxylic acid], the concentration for half-maximal inhibition (IC50) is at most 1000 nM.

`O=C(O)c1cn(-c2ccc(O)c(F)c2)c2cc(N3CCC[C@@H]3COc3ncccc3Cl)c(Cl)cc2c1=O` [Compound 127, (R)-6-chloro-7-(2-(((3-chloropyridin-2-yl)oxy)methyl)pyrrolidin-1-yl)-1-(3-fluoro-4-hydroxy-phenyl)-4-oxo-1,4-dihydro-quinoline-3-carboxylic acid]: the concentration for half-maximal inhibition (IC50) was at most 1000 nM.

As to `O=C(O)c1cn(-c2ccc3[nH]ncc3c2)c2cc(N3CCC[C@@H]3COc3ncccc3Cl)c(Cl)cc2c1=O` [Compound 128, (R)-6-chloro-7-(2-(((3-chloropyridin-2-yl)oxy)methyl)pyrrolidin-1-yl)-1-(1H-indazol-5-yl)-4-oxo-1,4-dihydro-quinoline-3-carboxylic acid], the half-inhibitory concentration (IC50) was at most 1000 nM.

With `CC1(n2cc(C(=O)O)c(=O)c3cc(Cl)c(N4CCC[C@@H]4COc4ncccc4Cl)cc32)CC1` [Compound 129, (R)-6-chloro-7-(2-(((3-chloropyridin-2-yl)oxy)methyl)pyrrolidin-1-yl)-1-(1-methylcyclo-propyl)-4-oxo-1,4-dihydro-quinoline-3-carboxylic acid], the IC50 was at most 1000 nM.

Consider `O=C(O)c1cn(-c2ccc(F)c(O)c2)c2cc(N3CCC[C@@H]3COc3ncccc3Cl)c(Cl)cc2c1=O` [Compound 130, (R)-6-chloro-7-(2-(((3-chloropyridin-2-yl)oxy)methyl)pyrrolidin-1-yl)-1-(4-fluoro-3-hydroxy-phenyl)-4-oxo-1,4-dihydro-quinoline-3-carboxylic acid], for which the 50% inhibitory concentration (IC50) is at most 1000 nM.

`O=C(O)c1cn(-c2ccc(O)c(Cl)c2)c2cc(N3CCC[C@@H]3COc3ncccc3Cl)c(Cl)cc2c1=O` [Compound 131, (R)-6-chloro-1-(3-chloro-4-hydroxy-phenyl)-7-(2-(((3-chloropyridin-2-yl)oxy)methyl)pyrrolidin-1-yl)-4-oxo-1,4-dihydro-quinoline-3-carboxylic acid]: the half-maximal inhibitory concentration (IC50) was at most 1000 nM.

Regarding `Cc1cccnc1OC[C@H]1CCCN1c1c(F)cc2c(=O)c(C(=O)O)cn(-c3ccc(O)cc3)c2c1F` [Compound 132, (R)-6,8-difluoro-1-(4-hydroxy-phenyl)-7-(2-(((3-methylpyridin-2-yl)oxy)methyl)pyrrolidin-1-yl)-4-oxo-1,4-dihydro-quinoline-3-carboxylic acid], the IC50 was at most 1000 nM.

As to `Cc1cccnc1OC[C@H]1CCCN1c1nc2c(cc1F)c(=O)c(C(=O)O)cn2-c1ccc(O)cc1` [Compound 133, (R)-6-fluoro-1-(4-hydroxy-phenyl)-7-(2-(((3-methylpyridin-2-yl)oxy)methyl)pyrrolidin-1-yl)-4-oxo-1,4-dihydro-1,8-naphthyridine-3-carboxylic acid], the concentration for half-maximal inhibition (IC50) is at most 1000 nM.

With `O=C(O)c1cn(-c2ccc(O)cc2)c2c(F)c(N3CCC[C@@H]3COc3ccccn3)c(F)cc2c1=O` [Compound 134, (R)-6,8-difluoro-1-(4-hydroxy-phenyl)-4-oxo-7-(2-((pyridin-2-yloxy)methyl)pyrrolidin-1-yl)-1,4-dihydro-quinoline-3-carboxylic acid], the IC50 is at most 1000 nM.

In the case of `O=C(O)c1cn(-c2ccc(O)cc2F)c2cc(N3CCC[C@@H]3COc3cccnn3)c(F)cc2c1=O` [Compound 135, (R)-6-fluoro-1-(2-fluoro-4-hydroxy-phenyl)-4-oxo-7-(2-((pyridazin-3-yloxy)methyl)pyrrolidin-1-yl)-1,4-dihydro-quinoline-3-carboxylic acid], the IC50 is at most 1000 nM.

`O=C(O)c1cn(-c2ccc(O)cc2F)c2cc(N3CCC[C@@H]3COc3ccncn3)c(F)cc2c1=O` [Compound 136, (R)-6-fluoro-1-(2-fluoro-4-hydroxy-phenyl)-4-oxo-7-(2-((pyrimidin-4-yloxy)methyl)pyrrolidin-1-yl)-1,4-dihydro-quinoline-3-carboxylic acid]: the IC50 fell in the range of 1000 to 10000 nM.

On to `COc1ccc(COc2ccc(-n3cc(C(=O)O)c(=O)c4cc(F)c(N5CCC[C@@H]5COc5ncccn5)cc43)c(F)c2)cc1` [Compound 137, (R)-6-fluoro-1-(2-fluoro-4-((4-methoxy-benzyl)oxy)phenyl)-4-oxo-7-(2-((pyrimidin-2-yloxy)methyl)pyrrolidin-1-yl)-1,4-dihydro-quinoline-3-carboxylic acid], for which the concentration for half-maximal inhibition (IC50) is at most 1000 nM.

In the case of `COc1ccc(COc2ccc(-n3cc(C(=O)O)c(=O)c4cc(F)c(N5CCC[C@@H]5COc5cccnn5)cc43)c(F)c2)cc1` [Compound 138, (R)-6-fluoro-1-(2-fluoro-4-((4-methoxy-benzyl)oxy)phenyl)-4-oxo-7-(2-((pyridazin-3-yloxy)methyl)pyrrolidin-1-yl)-1,4-dihydro-quinoline-3-carboxylic acid], the IC50 is at most 1000 nM.

`COc1ccc(COc2ccc(-n3cc(C(=O)O)c(=O)c4cc(F)c(N5CCC[C@@H]5COc5ccncn5)cc43)c(F)c2)cc1` [Compound 139, (R)-6-fluoro-1-(2-fluoro-4-((4-methoxy-benzyl)oxy)phenyl)-4-oxo-7-(2-((pyrimidin-4-yloxy)methyl)pyrrolidin-1-yl)-1,4-dihydro-quinoline-3-carboxylic acid]: the IC50 is at most 1000 nM.

For the origin of these results see patent US12662491B2 (Redona Therapeutics, Inc., priority 2020, dated 2026).
